Entries after “also recorded” stand apart in the source; their conditions may differ.
Legend:
[1] = system: hCMEC/D3 endothelial cells; assay: Endothelial spreading and cell coverage in peptide-lined DLP-printed channels; type: cell-based; settings: for Cell spreading and vessel coverage over time: 650 μm channels in photoink formulation no. 1, 5-day static culture, images on days 1, 3, 5; for Percent cell coverage within the vessel versus control / other motifs: 650 μm channels in photoink formulation no. 1, static culture, day 5, peptide clicked to channel wall; for Microenvironment for vessel coverage and development of barrier function: overall statement covering coverage and ZO-1 results in hCMEC/D3 endothelial cells
Method: Radicalized driven thiol-ene reaction schemes were utilized for functionalizing biomaterials. Several thiolated peptide cell binding motifs were functionalized to the walls of the printed geometry. Fluorescent labeled peptides were first synthesized via peptide synthesizer. […] Lyophilized RFP and GFP were both brought to room temperature and diluted to 10 mg/mL in 1×PBS. The bifurcation geometry print included RFP peptide in the bulk solution at 1:1000, while 300 μL of GFP was flowed into the channel at 10 μg/mL and hit with […] for 180 seconds. Process was repeated in the same manner for channel functionalization of the ‘RU’ geometry. Similarly, HAVDI(HAVDIGGGC), derived from N-Cadherein and RGD(GCGYGRGDSPG), derived from multiple ECM proteins, were synthesized and purchased from Genscript. IKVAV(GCGGGIKVAVG), a laminin derived motif, was fabricated using a peptide synthesizer. 5 mg/mL Irgacure 12959 was diluted to 0.5 mg/mL in PBS and thiolated peptide was added to a final concentration of 5 mM. 50 μL of peptide solution was injected into the channel and 10 mW/cm^2 was radiated onto surface of gel for 60 seconds. This process was repeated after inverting the gel to assure full coverage of the peptide onto the surface of the channel. Gels were then washed out 2× for 30 minutes in PBS to remove any unbound peptide.
(§1) P23 hCMEC/D3 endothelial cells (with and without transfection with RFP-LifeAct) were cultured until 90% confluent, trypsinized, and suspended at a concentration of 50M/mL for hydrogel cell seeding. Hydrogels were seeded with 22 μL of 12.5 M/mL and placed face up at the bottom of six well plate with 1 mL of EGM-2 incubated at 37° C./5% CO2. The cell seeding technique included 90° rotations every 30 minutes with additional seeding every hour for 4 hours. Following initial seeding, 8.8 μL of 12.5 M/mL HCMEC/D3 were injected into the bifurcation geometry for vessel coating. After 4 hours, hydrogels were kept in static culture for 4-5 days in EGM-2.
(§2) In order to quantify cell spreading, a z-projection was used with an arbitrary ROI to quantify the percentage of the area covered by cells. Three different ROI's were analyzed to provide an average and standard deviation. ZO-1 intensity was quantified in both static and perfused culture at different locations within the branched network. The image intensity along approximately 70-μm lines across the image plane were plotted to quantify ZO-1 localization to cell-cell junctions. […] ImageJ was used for all image processing and analysis.
Imaging was performed on a Nikon Eclipse Ti Confocal Microscope to assess cell spreading, morphology, and proliferation in 3D overtime within these microvessels. Images were taken on days 1, 3, and 5 following cell seeding.
(§3) A two-factor ANOVA was calculated to test for significance in the two variables of time and peptide coating in the cell spreading assay. In order to test for significance in the ZO-1 localization experiments, a one-factor ANOVA was calculated for each peptide condition tested.

[2] = system: ZO-1 localization in hCMEC/D3 cells; assay: ZO-1 localization to cell-cell junctions (tight junction integrity) in peptide-lined vessels; type: cell-based; settings: for ZO-1 staining localization to cell-cell junctions (images): photoink formulation no. 1, static conditions for five days; for Root mean square ZO-1 intensity quantification (barrier formation): photoink formulation no. 1, static culture day 5, p<0.05
Method: as §1
Vessels cultured in static conditions for four days were hooked up to pressure driven flow using an Arduino-controlled peristaltic pump. Gels were ported inside a perfusion chamber with 20-gauge PTFE catheter tips connected to luer locks with tygon tubing (McMaster Carr). Vessels were connected in parallel through a dampener with EGM-2 for 24 hours at a flow rate of ˜5 mL/min or 44.4 dyne/cm^2 shear stress in the branches and 1.68 dyne/cm^2 in the region adjacent to the bifurcation.
Following static and/or flow culture within the vessels, hydrogels were washed 3× in PBS and placed in 4% paraformaldehyde for 20 minutes. Gels were washed in PBS and a primary monoclonal antibody for zonula-occluden-1 (ZO-1) (Cell Signaling Technologies) was added at 1:250 in PBS and incubated at 4° C. for 48 hours. Gels were then washed for 10 minutes 3× in PBS on the rocker. Far red-labeled ZO-1 secondary antibody (Cell Signaling Technologies) was diluted 1:250 in PBS along with Hoesch at 2 ug/ml. Solution was added to the gels and incubated for 1 hour at 37° C. Gels were then washed and imaged on a Nikon Eclipse Ti Confocal microscope.
as §2, §3

Sequence	Cell spreading and vessel coverage over time [1]	Endothelial coverage of the branched (bifurcation) topology ([1]; bifurcation vessel, endothelial cells only, before seeding astrocytes)	ZO-1 localization in response to flow ([2]; network topology designed to induce flow separation, fully developed versus disturbed flow)	ZO-1 staining localization to cell-cell junctions (images) [2]	Percent cell coverage within the vessel versus control / other motifs [1]	Microenvironment for vessel coverage and development of barrier function [1]	Root mean square ZO-1 intensity quantification (barrier formation) [2]
GCGYGRGDSPG [thiolated peptide motif derived from multiple ECM proteins, clicked to channel walls or in the bulk photoink]	exhibited immediate spreading on PEG-norbornene and progressed linearly overtime; also recorded: increased cell spreading	full channel coverage was possible	no significant difference in ZO-1 localization in response to fully developed and disturbed flow	the ZO-1 was the most diffuse in this condition; also recorded: did not result in the highest ZO-1 localization to cell-cell junctions	–	–	–
GCGGGIKVAVG [thiolated laminin derived motif, covalently clicked to channel walls]	exhibited no noticeable difference in vessel coverage throughout the 5-day static culture	–	–	increase zonula occulends-1 (“ZO-1”) localization to cell-cell junctions; also recorded: exhibited more ZO-1 localization to the cell-cell junctions	significantly improve endothelialization compared to other motifs; also recorded: significantly higher coverage than the control condition	provide the most favorable microenvironment for both vessel coverage and development of barrier function	significantly higher barrier formation than the RGD and control-lined channels
HAVDIGGGC	over the course of the experiment cells began to spread and cover the walls; also recorded: took several days to spread and cover the vessel wall	–	–	increase zonula occulends-1 (“ZO-1”) localization to cell-cell junctions; also recorded: ZO-1 junctional staining was the clearest; also recorded: induced the highest ZO-1 localization to the cell-cell junctions	significantly improve endothelialization compared to other motifs; also recorded: significantly higher coverage than the control condition	provide the most favorable microenvironment for both vessel coverage and development of barrier function	significantly higher barrier formation than the RGD and control-lined channels

From patent publication US20240117305A1, “THREE-DIMENSIONAL PRINTABLE BIOCOMPATIBLE PHOTOPOLYMERIZABLE INK WITH SPATIALLY CONTROLLED DUAL PROTEIN MOTIFS FOR CO-CULTURE FUNCTIONALITY” (Rowan University, priority 2022, published 2024)
